# Data as given in patent US8026282B2, “Phenoxyalkylcarboxylic acid derivatives in the treatment of irritable bowel syndrome” (Medicinova, Inc., priority 2004, dated 2011).
# What was measured:
# [1] = molecular target: PDE2 (Homo sapiens, UniProt O00408); assay: Biochemical assay PDE2; settings: PDE2, Hu
# [2] = molecular target: LTB4 (Homo sapiens, UniProt Q15722); assay: Biochemical assay LTB4; assay type: binding; settings: LTB4, Hu
# [3] = molecular target: T1, 5-LO (Homo sapiens, UniProt P09917); assay: Biochemical assay 5-LO; settings: Hu
# T1 sequence (P09917 1-674): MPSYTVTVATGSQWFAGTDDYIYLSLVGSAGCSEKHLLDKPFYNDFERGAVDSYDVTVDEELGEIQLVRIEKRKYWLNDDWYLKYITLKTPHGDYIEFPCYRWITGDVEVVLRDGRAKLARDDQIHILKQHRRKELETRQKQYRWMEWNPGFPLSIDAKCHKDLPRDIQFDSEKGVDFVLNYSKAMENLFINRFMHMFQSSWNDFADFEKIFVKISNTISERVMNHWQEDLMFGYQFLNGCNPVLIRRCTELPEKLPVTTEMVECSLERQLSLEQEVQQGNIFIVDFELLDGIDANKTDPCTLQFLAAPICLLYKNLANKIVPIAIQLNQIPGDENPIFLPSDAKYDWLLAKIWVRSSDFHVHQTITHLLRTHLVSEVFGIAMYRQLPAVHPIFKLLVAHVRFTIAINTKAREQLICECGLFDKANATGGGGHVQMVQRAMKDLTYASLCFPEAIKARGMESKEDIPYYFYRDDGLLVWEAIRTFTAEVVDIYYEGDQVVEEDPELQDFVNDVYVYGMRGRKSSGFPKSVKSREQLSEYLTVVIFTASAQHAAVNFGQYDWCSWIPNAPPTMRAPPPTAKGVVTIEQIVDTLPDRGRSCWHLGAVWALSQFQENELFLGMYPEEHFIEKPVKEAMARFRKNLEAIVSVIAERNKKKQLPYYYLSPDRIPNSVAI
# [4] = molecular target: T2, Adrenergic α2B (Homo sapiens, UniProt P18089); assay: Biochemical assay Adrenergic α2B; assay type: binding; settings: Hu; for Ki: value in parentheses
# T2 sequence (P18089 1-450): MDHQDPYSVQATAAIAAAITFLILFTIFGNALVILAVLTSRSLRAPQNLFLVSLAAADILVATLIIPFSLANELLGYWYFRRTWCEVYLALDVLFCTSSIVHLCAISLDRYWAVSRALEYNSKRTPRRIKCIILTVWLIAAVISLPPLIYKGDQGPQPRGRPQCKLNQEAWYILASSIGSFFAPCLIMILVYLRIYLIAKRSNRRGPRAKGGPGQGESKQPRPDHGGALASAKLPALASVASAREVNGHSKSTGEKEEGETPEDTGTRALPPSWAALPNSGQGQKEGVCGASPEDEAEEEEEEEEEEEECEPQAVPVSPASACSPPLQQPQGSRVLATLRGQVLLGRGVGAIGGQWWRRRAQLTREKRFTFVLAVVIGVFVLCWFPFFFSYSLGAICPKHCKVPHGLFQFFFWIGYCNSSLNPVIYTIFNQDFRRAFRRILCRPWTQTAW
# [5] = test system: IBS/ulcerative colitis; assay: Example 9: patient with IBS/ulcerative colitis symptoms; assay type: in vivo, human; settings: 750 mg tablets three times per day for at least two months; present-tense example
# Protocol: A person complains of symptoms associated with IBS/ulcerative colitis, including diarrhea with discharge of mucus and blood, cramping abdominal pain, and inflammation and edema of the mucous membrane with patches of ulceration. The patient is treated with tablets containing 750 mg of compound (1), three times per day, for at least two months. […] Similar positive results are observed for other patients complaining of the same or similar symptoms attributable to IBS or ulcerative colitis.
# [6] = molecular target: T3, LTD4 (Cavia porcellus, UniProt Q2NNR5); assay: Biochemical assay LTD4; assay type: binding; settings: LTD4, Gp; for Ki: value in parentheses
# T3 sequence (Q2NNR5 1-340): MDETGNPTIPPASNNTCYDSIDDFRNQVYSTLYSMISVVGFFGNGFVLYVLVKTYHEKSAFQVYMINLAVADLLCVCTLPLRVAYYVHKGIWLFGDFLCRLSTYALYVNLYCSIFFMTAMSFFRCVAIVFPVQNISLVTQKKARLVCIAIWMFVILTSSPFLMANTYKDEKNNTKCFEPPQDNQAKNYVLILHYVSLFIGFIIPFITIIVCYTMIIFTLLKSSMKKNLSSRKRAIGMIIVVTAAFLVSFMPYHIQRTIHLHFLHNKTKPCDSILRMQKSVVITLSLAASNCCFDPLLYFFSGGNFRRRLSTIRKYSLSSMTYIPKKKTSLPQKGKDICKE
# [7] = molecular target: Melanocortin MC5 (Homo sapiens, UniProt P33032); assay: Biochemical assay Melanocortin MC5; assay type: binding; settings: Melanocortin MC5, Hu; for Ki: value in parentheses
# Chain of Melanocortin MC5 (P33032 whole entry): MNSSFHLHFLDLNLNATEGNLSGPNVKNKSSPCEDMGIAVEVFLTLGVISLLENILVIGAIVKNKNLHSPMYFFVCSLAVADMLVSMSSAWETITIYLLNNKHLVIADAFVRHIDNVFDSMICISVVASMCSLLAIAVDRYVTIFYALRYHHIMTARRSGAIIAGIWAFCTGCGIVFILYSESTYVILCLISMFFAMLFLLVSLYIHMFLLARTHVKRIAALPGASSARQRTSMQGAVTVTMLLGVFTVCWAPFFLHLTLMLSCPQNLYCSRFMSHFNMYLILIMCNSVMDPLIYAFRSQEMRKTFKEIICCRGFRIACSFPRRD
# [8] = Form present in human plasma; assay type: in vivo; settings: metabolite of compound 1, human plasma
# Chain of PDE2 (O00408 whole entry): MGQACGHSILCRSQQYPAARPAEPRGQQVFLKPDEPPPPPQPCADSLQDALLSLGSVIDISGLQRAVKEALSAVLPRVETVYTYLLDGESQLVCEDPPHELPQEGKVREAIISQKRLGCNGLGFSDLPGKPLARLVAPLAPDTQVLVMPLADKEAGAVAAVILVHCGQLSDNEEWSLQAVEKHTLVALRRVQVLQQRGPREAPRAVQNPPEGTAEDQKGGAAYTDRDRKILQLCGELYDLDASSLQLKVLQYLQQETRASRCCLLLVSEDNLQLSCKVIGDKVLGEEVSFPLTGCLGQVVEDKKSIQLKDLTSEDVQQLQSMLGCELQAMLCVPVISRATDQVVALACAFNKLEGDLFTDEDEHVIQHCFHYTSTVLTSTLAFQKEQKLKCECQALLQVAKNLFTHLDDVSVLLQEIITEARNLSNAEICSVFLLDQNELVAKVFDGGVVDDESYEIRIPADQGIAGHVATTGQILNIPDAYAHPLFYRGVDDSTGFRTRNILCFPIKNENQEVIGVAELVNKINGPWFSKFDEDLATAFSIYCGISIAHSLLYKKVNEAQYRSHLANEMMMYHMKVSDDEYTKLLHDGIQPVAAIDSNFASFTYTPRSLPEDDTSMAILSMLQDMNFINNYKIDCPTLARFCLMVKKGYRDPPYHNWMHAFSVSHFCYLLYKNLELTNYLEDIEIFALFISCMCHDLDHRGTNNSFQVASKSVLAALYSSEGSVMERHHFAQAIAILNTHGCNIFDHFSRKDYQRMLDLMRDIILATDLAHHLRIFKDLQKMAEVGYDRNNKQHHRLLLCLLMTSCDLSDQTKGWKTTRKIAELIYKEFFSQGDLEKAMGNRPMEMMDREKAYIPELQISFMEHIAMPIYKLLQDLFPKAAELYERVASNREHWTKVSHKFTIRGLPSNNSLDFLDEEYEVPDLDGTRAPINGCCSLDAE
# Chain of LTB4 (Q15722 whole entry): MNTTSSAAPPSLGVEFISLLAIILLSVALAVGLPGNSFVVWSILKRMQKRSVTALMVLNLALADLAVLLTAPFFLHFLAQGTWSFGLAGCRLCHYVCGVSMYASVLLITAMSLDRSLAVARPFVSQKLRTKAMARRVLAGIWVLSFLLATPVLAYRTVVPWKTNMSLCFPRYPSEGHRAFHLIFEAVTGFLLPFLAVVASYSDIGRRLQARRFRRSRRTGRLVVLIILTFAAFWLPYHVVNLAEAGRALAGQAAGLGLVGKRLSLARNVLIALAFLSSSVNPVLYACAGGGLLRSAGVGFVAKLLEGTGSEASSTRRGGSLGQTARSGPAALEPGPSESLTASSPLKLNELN
IC50 [1] [µM],IC50 [2] [µM],Ki ([2]; value in parentheses) [µM],IC50 [3] [µM],IC50 [4] [µM],Ki [4] [µM],IC50 [6] [µM],Ki [6] [µM],IC50 [7] [µM],Ki [7] [µM],form in human plasma [8],Structure (SMILES),symptoms of IBS/ulcerative colitis reported by patient [5]
3.43,9.02,2.29,1.11,2.81,1.28,6.36,3.18,2.58,2.42,–,"CCCc1c(SCCCOc2ccc(C(C)=O)c(OCCCC(=O)O)c2CCC)ccc(C(C)=O)c1O [Compound 1, 4-[6-acetyl-3-[3-(4-acetyl-3-hydroxy-2-propylphenylthio)propoxy]-2-propylphenoxy]butyric acid]",positive effects
3.38,–,–,1.61,1.6,0.732,5.35,2.67,1.82,1.71,dominant form,CCCc1c(SCCCOc2ccc(C(C)O)c(OCCCC(=O)O)c2CCC)ccc(C(C)=O)c1O (centres unmarked) [Compound 2],–
